Assay [1] is described as follows: Induction of dissociation of KV1.1 T1 domain/rat Kvbeta2 complex by solid phase binding assay.
Assay [2] is described as follows: Induction of dissociation of KV1.1 T1 domain/rat Kvbeta2 I211R mutant complex at 2 mM by solid phase binding assay.
Assay [3] deals with Voltage-gated potassium channel subunit beta-2 (Rattus norvegicus) (UniProt P62483). The assay can be described thus: Binding affinity to Kvbeta2 assessed as reduction of fluorescence by NADPH fluorescence spectrum based assay. More on the design: scale not given: the % may be the effect or the level left.
Voltage-gated potassium channel subunit beta-2 (Rattus norvegicus), sequence (P62483 whole entry, looked up): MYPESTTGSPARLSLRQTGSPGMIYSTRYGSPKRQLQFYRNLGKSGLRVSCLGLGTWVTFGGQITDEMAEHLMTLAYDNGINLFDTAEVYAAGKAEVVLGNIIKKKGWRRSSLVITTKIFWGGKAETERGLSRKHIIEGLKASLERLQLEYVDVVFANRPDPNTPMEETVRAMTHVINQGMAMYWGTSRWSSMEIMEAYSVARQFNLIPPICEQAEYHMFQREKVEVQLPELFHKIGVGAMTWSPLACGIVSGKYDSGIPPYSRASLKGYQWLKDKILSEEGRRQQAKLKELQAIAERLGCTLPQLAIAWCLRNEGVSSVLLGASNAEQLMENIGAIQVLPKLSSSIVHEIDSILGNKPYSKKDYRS
The target in assay [4] is Potassium voltage-gated channel subfamily A member 1 (Rattus norvegicus) (UniProt P10499). Briefly: Activation of KV1.1 expressed in Xenopus laevis oocytes coexpressing Kvbeta1 assessed as increase in channel current at 500 uM by electrophysiology method. Particulars: Oocyte.
Potassium voltage-gated channel subfamily A member 1 (Rattus norvegicus), sequence (P10499 whole entry, looked up): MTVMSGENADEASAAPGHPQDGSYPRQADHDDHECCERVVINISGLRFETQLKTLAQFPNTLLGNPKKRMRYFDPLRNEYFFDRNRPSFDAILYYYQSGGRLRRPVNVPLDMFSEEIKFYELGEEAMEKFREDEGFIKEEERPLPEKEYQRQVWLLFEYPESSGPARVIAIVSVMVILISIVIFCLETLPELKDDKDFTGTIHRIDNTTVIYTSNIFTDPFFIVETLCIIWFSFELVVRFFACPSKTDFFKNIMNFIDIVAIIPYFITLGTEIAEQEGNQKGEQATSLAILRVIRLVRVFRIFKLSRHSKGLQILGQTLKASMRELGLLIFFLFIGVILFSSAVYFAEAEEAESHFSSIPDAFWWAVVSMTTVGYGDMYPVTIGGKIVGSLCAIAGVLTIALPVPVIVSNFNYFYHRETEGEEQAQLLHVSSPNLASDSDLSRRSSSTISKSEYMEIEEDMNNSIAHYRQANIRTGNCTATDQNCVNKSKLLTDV
Assay [5] shares this target. The assay can be described thus: Activation of KV1.1 expressed in Xenopus laevis oocytes assessed as increase in steady state current normalized to initial inactivating current by electrophysiology method. The following applies: Oocyte.
For assay [6] the target is unchanged. The assay can be described thus: Activation of KV1.1 expressed in Xenopus laevis oocytes coexpressing Kvbeta1 assessed as increase in steady state current normalized to initial inactivating current by electrophysiology method.
Assay [7] has the same target. The assay can be described thus: Activation of KV1.1 expressed in Xenopus laevis oocytes coexpressing Kvbeta1 assessed as increase in steady state current normalized to initial inactivating current at 500 uM by electrophysiology method. The following applies: Oocyte.
The target is the same in assay [8]. Briefly: Activation of KV1.1 expressed in Xenopus laevis oocytes coexpressing Kvbeta1 W155A mutant assessed as increase in steady state current normalized to initial inactivating current at 500 uM by electrophysiology method. Particulars: Oocyte.

Molecules are shown by their SMILES. Active and inactive are the calls of the source. The rule behind the calls is not given here.

A word on the EC50: it is the midpoint of the concentration-response curve. For `C[C@]12CCC(=O)C=C1CC[C@@H]1[C@@H]2C(=O)C[C@@]2(C)[C@H]1CC[C@]2(O)C(=O)CO` [CORTISONE], the EC50 in assay [1] turned out to be 68 µM; in assay [6], 46 µM. Further, the outcome in assay [2] was inactive. Moreover, the Activity in assay [3] was found to be 21%; in assay [5], 4.5%; in assay [7], 84%; in assay [8] it was 93%. The outcome in assay [4] was Active.
